Assay results: patent US20120077794A1, “BIS-PYRIDYLPYRIDONES AS MELANIN-CONCENTRATING HORMONE RECEPTOR 1 ANTAGONISTS” (GLAXSMITHKLINE LLC, priority 2009, published 2012)
Read-outs that look alike come from different tables or passages of the source.

Molecular target: T1, hMCHR1 (Homo sapiens, UniProt Q99705)
T1 construct: expressed in transfected cells; host or cells: HEK293
Assay: MCHR1 pIC50 Determination FLIPR Assay
Assay type: cell-based
Protocol: MCHR1 pIC50 Determination FLIPR™ Assay: HEK293 cells stably transfected with hMCHR1 were propagated as adherent cultures at 37° C. in a humidified incubator. Cells were split 1:8 at 90% confluency two times per week. New cell stocks were recovered from storage every two months. Cells were plated in black 384-well plates (Greiner) 24 hours prior to assay at 15,000 cells/well in 50 μL DMEM/F12, 10% FBS, 2 mM I-glutamine. Compounds to be profiled were prepared by making a stock solution at 3×10^−3M in 100% DMSO. The stock solutions were serially diluted 1:4 in 100% DMSO using JANUS (PerkinElmer) liquid handling instrument to allow for an 11 point curve in singlicate. At the time of the assay, the media was removed from the cell plate by aspiration, followed by the addition of 20 μL of loading buffer (Calcium 4 Kit, […]). Following 50 min incubation at 37° C., 10 μL of compound was added to the plates via the FLIPR™ instrument ([…]). The plates were incubated at room temperature for 15 minutes along with an MCH peptide agonist challenge plate. On the FLIPR™, a basal response was collected over 10 seconds followed by the addition of 10 μL of MCH challenge concentration at 4XEC50. Data was collected over 4 minutes and subjected to a nonlinear regression analysis curve fitting program to generate pIC50s.

[1] = HEK293 cells stably transfected with hMCHR1, MCH challenge at 4XEC50, at least one experimental run, read-out: IC50 in the FLIPR assay

T1 sequence (Q99705 whole entry): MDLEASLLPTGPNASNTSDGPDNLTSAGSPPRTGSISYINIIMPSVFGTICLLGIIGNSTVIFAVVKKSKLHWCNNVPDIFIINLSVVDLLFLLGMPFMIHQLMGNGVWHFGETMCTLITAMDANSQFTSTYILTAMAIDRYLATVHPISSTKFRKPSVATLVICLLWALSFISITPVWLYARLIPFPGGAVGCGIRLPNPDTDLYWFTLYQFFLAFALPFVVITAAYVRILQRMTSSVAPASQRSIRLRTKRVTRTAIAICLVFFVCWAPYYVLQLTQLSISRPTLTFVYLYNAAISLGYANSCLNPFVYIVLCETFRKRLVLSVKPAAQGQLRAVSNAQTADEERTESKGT

Row | Compound | IC50 (quantity and assay not stated, read-out: unlabelled value in the heading of Example 2) | IC50 [1]
1 | O=c1cc(OCc2ccc(Cl)cn2)ccn1-c1ccc(N2CCNCC2)nc1 [Example 2, 4-{[(5-chloro-2-pyridinyl)methyl]oxy}-6′-(piperazin-1-yl)-2H-1,3′-bipyridin-2-one] | 88 nM | –
2 | O=c1cc(OCc2ccc(Cl)cn2)ccn1-c1ccc(N2CCC[C@@H]2CO)nc1 [Example 4, 4-{[(5-chloro-2-pyridinyl)methyl]oxy}-6′-{[(2R)-hydroxymethyl]pyrrolidin-1-yl}-2H-1,3′-bipyridin-2-one] | – | 48 nM
3 | O=c1cc(OCc2ccc(Cl)cn2)ccn1-c1ccc(N2CCCNCC2)nc1 [Example 13] | – | 52 nM
4 | CC(C)[C@H]1CN(c2ccc(-n3ccc(OCc4ccc(Cl)cn4)cc3=O)cn2)CCN1C [Example 19] | – | 53 nM
